Laboratory results taken from patent US20070071699A1, “Benzylidene-1,3-thiazolidine-2,4-dione compounds for promoting and/or inducing and/or stimulating the pigmentation of keratin materials and/or for limiting their depigmentation and/or whitening” (L'OREAL, priority 2005, published 2007).
Each block holds one compound with its values, some of them ahead of it.

Tests used:
[1] = test system: tyrosinase activity of normal human epidermal melanocytes; assay: Tyrosinase activity of normal human melanocytes in culture (72 h treatment, lysate, L-Dopa substrate, absorbance 450 nm); type: cell-based; settings: for Stimulation of the tyrosinase activity: 72 h
Protocol: a) Melanocyte Culture Conditions:
Normal human epidermal melanocytes are cultured (9th passage) in melanocyte growth medium M2 supplemented with:
Promocell C24300 supplements
Penicillin 50 IU/ml and streptomycin 50 μg/ml (Invitrogen) under standard temperature conditions (37° C.) at 5% CO2.
b) Preparation of the Solutions of the Test Compound:
The final titre of the prepared solutions is 10 mM. The final test concentrations range from 0.1 to 10 μM (PGE2) and 1 to 10 μM (15-PGDH inhibitors).
c)Principle of the Tests:
The tests performed consist in measuring the […] alone or combined with PGE2* on the overall activity of tyrosinase. *PGE2 is a pigmentation modulator that is deactivated by the enzyme 15-PGDH.
The melanocytes are cultured in 96-well plates up to confluence (culture conditions described in a) and the supernatant of each of the wells is then removed and replaced with the medium containing the compounds to be evaluated.
Thus (in triplicate), the 15-PGDH inhibitor alone at 1 μM and 10 μM or, for each of these first conditions, in the presence of 0.1 μM, 1 μM or 10 μM of PGE2.
The cultures are maintained under these various conditions for 72 h, the supernatants are then removed and the cell lawns are washed with a phosphate buffer (pH=7.2). The cells are lysed with a pH 7.2 phosphate buffer containing 1% Triton X100.
The tyrosinase activity of each of the lysates is then estimated against a fungal tyrosinase range (Sigma T7755).
The methodology implemented uses L-Dopa as reaction substrate (45 minutes at 37° C.); the formation of melanin is assessed by measuring the absorbance at 450 nm.
In this test, two references are also evaluated: kojic acid (a tyrosinase inhibitor introduced at 0.1% into the culture medium) and isobutyl methyl xanthine (IBMX), a phosphodiesterase inhibitor which, by limiting the catabolism of cAMP, contributes towards increasing the overall tyrosinase activity as assessed in this test.

type-1 15-PGDH = target: T1, type-1 15-PGDH (Homo sapiens, UniProt P15428); assay: Test on type-1 15-PGDH (spectrophotometric, NADH formation at 340 nm, PGE2 substrate); type: biochemical; settings: 37° C., pH 7.4 Tris buffer, 1.5 mM β-NAD, 50 μM Prostaglandin E2
T1 construct: made in house
T1 sequence (P15428 1-266): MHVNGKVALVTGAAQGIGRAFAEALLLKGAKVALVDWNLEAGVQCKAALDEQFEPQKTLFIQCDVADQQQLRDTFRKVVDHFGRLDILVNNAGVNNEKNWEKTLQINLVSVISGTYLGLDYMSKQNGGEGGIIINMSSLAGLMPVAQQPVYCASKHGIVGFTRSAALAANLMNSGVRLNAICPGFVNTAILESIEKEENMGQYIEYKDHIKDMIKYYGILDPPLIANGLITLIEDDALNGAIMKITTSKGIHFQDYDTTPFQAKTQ
Protocol: For the purposes of the test, this suspension is thawed and stored in ice.
0.965 ml of this buffer (brought to 37° C. beforehand) is introduced into the cuvette of a spectrophotometer (Perkin-Elmer, Lambda 2) thermostatically maintained at 37° C., the measuring wavelength of which is set at 340 nm. 0.035 mL of enzymatic suspension at 37° C. is introduced into the cuvette concomitantly with the recording (corresponding to an increase in the optical density at 340 nm). The maximum reaction rate is recorded.

SMILES: CC(C)(C)c1ccc(Oc2ccccc2/C=C2\SC(=O)N=C2[O-])cc1.[Na+] [Compound 4, (5Z)-5-[2-(4-tert-butylphenoxy)benzylidene]-1,3-thiazolidine-2,4-dione]
Stimulation of the tyrosinase activity ([1]; Compound 4 1 μM + PGE2 0.1 μM): +27%
Stimulation of the tyrosinase activity ([1]; Compound 4 1 μM + PGE2 1 μM): +40%
Stimulation of the tyrosinase activity ([1]; Compound 4 1 μM + PGE2 10 μM): +32%
Stimulation of the tyrosinase activity ([1]; Compound 4 1 μM alone): +16%

IC50 (type-1 15-PGDH): 5 µM
SMILES: O=C1NC(=O)/C(=C\c2ccc(OCc3cccc(Cl)c3)cc2)S1 [Compound 13]

IC50 (type-1 15-PGDH): 1.55 µM
SMILES: O=C1NC(=O)/C(=C/c2ccccc2Oc2ccc(Br)c(F)c2)S1 [Compound 14]

Stimulation of the activity of tyrosinase ([1]; PGE2 alone at 0.1 μM): +3%
Stimulation of the activity of tyrosinase ([1]; PGE2 alone at 1 μM): +9%
SMILES: CCCCC[C@H](O)/C=C/[C@H]1[C@H](O)CC(=O)[C@@H]1C/C=C\CCCC(=O)O [PGE2, Prostaglandin E2, reference compound]
